# Values quoted from earlier work, collected in patent publication US20030054382A1, “Infection of eukaryotic cells with viruses in vitro” (priority 1999, published 2003).
# Tested on: HCV
# Details: pretreatment of the cells to be infected
substance,measurement,value
dextran sulfate,attachment of HCV to the cell surface and infection of the cells,inhibits the attachment of HCV to the cell surface and prevents any infection of the cells
